According to patent publication US10695302B2, “Treatments for attention and cognitive disorders, and for dementia associated with a neurodegenerative disorder” (priority 2013, dated 2020):

Experiments:
male Sprague-Dawley rats [1] = test: set-shifting task; assay type: in vivo, rat; conditions: IP, SK609 4.0 mg/kg or raclopride 0.05 mg/kg, versus saline
Text: Sixteen food-restricted male Sprague-Dawley rats were trained to discriminate between a pair of small ceramic pots in order to retrieve a food reward buried within one of the pots. A pair of pots differed from each other along three possible dimensions: scent, digging medium, or material covering the outer surface of the pot.
Simple discriminations (SD) were made between pots differing from each other along one dimension. Compound Discriminations (CD) were made between pots differing along two dimensions. Intra-dimensional Shifts (IDS) were changes made within a previously tested dimension. Extra-Dimensional Shifts (EDS) were changes made to a previously untested dimension.
Animals were tested on their ability to form an attentional set by attending to the dimension that predicts the food reward. Animals were then tested on their ability to make an IDS, EDS, or reversal by responding only to the new salient dimension while suppressing the urge to respond to the previously salient stimulus.
0.9% saline (1 mg/kg), raclopride (0.05 mg/kg) or SK609 (4 mg/kg) were administered (IP) 30 prior to the experiment followed by 0.9% saline (1 mg/kg) 15 min prior to beginning the task. Animals were tested to criterion performance of 5 consecutive correct trials.

hSERT = hSERT (Homo sapiens, UniProt P31645); test: effect on efflux of monoamine neurotransmitters, hSERT; assay type: cell-based
male Sprague-Dawley rats [2] = test: cross maze task; assay type: in vivo, rat
Text: The experimental design for cross maze task was adapted from Stefani et al, 2003, Behav. Neurosci. 117(4):728-37 (FIG. 7). Ten food-restricted male Sprague-Dawley rats were acclimated to a cross maze whose arms differed by color (red vs blue) or texture (smooth vs rough). A food reward was placed in a food well located at the end of the arm.
Rats were trained to form a mental set by associating a food reward with one feature of one dimension. Rats were subsequently tested on their ability to predict the food reward based on one feature of the alternative dimension.
0.9% saline (1 mg/kg), raclopride (0.05 mg/kg) or SK609 (4 mg/kg) were administered (IP) 30 prior to the experiment, followed by 0.9% saline (1 mg/kg) 15 min prior to beginning the task. Animals were tested to criterion performance of 8 consecutive correct trials.

hNET = hNET (Homo sapiens, UniProt P23975); test: effect on efflux of monoamine neurotransmitters, hNET; assay type: cell-based
male Sprague-Dawley rats [3] = test: sustained attention task (vigilance index); assay type: in vivo, rat
Procedure: The vigilance index (VI) of rats treated with SK609 was evaluated using the following protocol. Substantively, eight water restricted male Sprague-Dawley rats were trained in an operant task of sustained attention (McGaughy & Sarter, 1995, Psychopharm. 117:340-357). In response to both signal and non-signal conditions, a water reward was given for correct responses as a positive reinforcer. Rats were first trained by successive approximation to establish lever pressing behavior. Subjects were then trained to criterion performance on the sustained attention task with a 1,000 msec light stimulus duration and then transferred to 15 msec stimulus duration.
Performance was determined based on a rat's calculated VI: VI=(h−f)/[2*(h+f)−(h+f)^2], wherein h (relative hits)=# Hits/(# Hits+# Misses), and f ([…])=# False Alarms/(# False Alarms+# Correct Rejections).
VI of 1 indicates complete vigilance; VI of 0.35 indicates above chance vigilance; and VI of −1 indicates no vigilance.
Testing occurred over a 45 min session of randomly presented signal and non-signal trials. Criterion performance required a rat to achieve greater than 59% signal and non-signal trials, a VI greater than 0.35 and less than 25% omissions per day for three consecutive days. Once subjects stabilized at a baseline, their responses are no longer considered random.
SK609 was administered intraperitoneally (IP) at various doses 15 min prior to beginning the task. Prazosin was administered IP 30 min prior, and SK609 15 min prior to beginning the task. Data are presented as difference scores for VI from an average baseline (FIGS. 4-6).
The operant conditioning chambers contained a house light (2.8 W), a stimulus light (2.8 W), a pair of retractable levers and water reward apparatus. Eight water-restricted male Sprague-Dawley rats were trained in an operant task of sustained attention. In response to both signal and non-signal conditions, a water reward was given for correct responses as a positive reinforcer.
Rats were first trained by successive approximation to establish lever pressing behavior. Subsequently, the rats were trained to criterion performance. Criterion performance required a rat to achieve greater than 59% signal and non-signal trials, a VI greater than 0.35 and less than 25% omissions per day for three consecutive days.
Prazosin (0.25 mg/kg) and raclopride (0.05 mg/kg) were administered (IP) 30 min prior to the experiment followed by either SK609 (4.0 mg/kg) or MPH (2.0 mg/kg) 15 min prior to beginning the task. Performance was determined based on a rat's calculated Vigilance Index (VI). Data are presented as difference scores for VI from an average baseline.

hDAT = hDAT (Homo sapiens, UniProt Q01959); test: effect on efflux of monoamine neurotransmitters, hDAT; assay type: cell-based
[4] = efflux measured as percentage of vehicle, FIG. 1
[5] = panel of monoamine neurotransmitter transporters
[6] = SK609 IP 4.0 mg/kg, prazosin IP 0.25 mg/kg or raclopride IP 0.05 mg/kg 30 min prior
[7] = SK609 peak dose 8 mg/kg, FIG. 4

hDAT, sequence (Q01959 whole entry): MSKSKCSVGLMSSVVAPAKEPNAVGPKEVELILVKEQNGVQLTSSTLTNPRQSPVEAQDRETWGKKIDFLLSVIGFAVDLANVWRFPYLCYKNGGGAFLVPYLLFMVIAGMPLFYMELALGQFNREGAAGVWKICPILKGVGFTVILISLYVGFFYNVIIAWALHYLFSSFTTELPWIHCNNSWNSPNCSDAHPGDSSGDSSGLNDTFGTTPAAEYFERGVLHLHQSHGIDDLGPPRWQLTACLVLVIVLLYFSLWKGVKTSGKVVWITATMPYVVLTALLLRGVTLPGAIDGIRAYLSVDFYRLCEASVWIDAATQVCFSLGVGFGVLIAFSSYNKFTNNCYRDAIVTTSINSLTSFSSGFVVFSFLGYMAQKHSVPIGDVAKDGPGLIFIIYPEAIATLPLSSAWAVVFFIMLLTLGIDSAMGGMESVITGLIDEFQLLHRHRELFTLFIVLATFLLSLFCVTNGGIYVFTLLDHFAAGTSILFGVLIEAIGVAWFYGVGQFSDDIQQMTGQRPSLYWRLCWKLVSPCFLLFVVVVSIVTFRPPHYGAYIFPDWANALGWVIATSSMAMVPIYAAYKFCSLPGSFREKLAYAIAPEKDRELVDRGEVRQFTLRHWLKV
hSERT, sequence (P31645 whole entry): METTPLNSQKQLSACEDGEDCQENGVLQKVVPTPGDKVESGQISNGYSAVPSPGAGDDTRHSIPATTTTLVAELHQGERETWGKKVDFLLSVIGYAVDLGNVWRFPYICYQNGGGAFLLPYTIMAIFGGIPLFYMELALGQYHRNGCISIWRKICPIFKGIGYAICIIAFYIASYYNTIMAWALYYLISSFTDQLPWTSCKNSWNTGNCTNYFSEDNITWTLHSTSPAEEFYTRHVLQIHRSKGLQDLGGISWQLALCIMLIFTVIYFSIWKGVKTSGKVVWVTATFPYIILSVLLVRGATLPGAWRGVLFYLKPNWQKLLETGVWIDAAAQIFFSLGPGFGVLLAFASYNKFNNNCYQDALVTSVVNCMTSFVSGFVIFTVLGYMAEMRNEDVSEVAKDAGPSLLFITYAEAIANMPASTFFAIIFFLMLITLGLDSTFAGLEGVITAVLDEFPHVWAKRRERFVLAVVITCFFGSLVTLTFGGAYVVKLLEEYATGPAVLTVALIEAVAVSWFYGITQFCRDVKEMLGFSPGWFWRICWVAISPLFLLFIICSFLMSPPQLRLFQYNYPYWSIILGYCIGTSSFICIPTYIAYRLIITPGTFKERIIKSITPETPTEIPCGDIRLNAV
hNET, sequence (P23975 whole entry): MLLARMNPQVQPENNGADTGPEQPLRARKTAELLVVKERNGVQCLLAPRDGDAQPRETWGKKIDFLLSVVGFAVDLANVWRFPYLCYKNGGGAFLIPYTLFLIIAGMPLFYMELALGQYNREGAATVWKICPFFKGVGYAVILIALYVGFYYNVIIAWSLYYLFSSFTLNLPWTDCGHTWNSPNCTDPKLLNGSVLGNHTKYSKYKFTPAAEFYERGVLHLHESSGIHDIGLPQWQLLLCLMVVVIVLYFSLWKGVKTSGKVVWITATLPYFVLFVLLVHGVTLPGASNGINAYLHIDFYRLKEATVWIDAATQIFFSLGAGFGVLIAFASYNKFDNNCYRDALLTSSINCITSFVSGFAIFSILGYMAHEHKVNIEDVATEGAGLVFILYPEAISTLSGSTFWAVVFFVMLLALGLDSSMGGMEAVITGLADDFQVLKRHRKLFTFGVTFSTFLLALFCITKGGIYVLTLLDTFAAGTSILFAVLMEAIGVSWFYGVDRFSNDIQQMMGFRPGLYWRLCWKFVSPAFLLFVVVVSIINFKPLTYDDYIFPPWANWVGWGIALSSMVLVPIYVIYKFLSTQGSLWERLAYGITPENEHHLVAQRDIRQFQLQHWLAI

Compound	performance in EDS, IDS, CD of set-shifting task (male Sprague-Dawley rats [1])	IC50 (hSERT; [4]) [µM]	effect on serotonin transporters (SERT) (hSERT; [5])	cross maze overall performance in 8 trial increments over 80 trials (male Sprague-Dawley rats [2]; SK609 IP 4.0 mg/kg vs saline, p=0.008, FIG. 10B)	cross maze performance (number of trials to reach criterion) (male Sprague-Dawley rats [2]; SK609 IP 4.0 mg/kg, n=5 vs saline n=2, p=0.027, FIG. 10A)	IC50 (hNET; [4]) [µM]	effect on NET (hNET; [5])	peak dose for vigilance index (VI) performance (male Sprague-Dawley rats [3]; IP, doses 2, 4, 8, 10 and 20 mg/kg, inverted-U dose response) [mg/kg]	% omissions (male Sprague-Dawley rats [3]; SK609 8 mg/kg IP)	sustained attention (VI difference from baseline) (male Sprague-Dawley rats [3]; SK609 8 mg/kg IP, 15 min prior to task)	% omissions (male Sprague-Dawley rats [3]; SK609 high doses IP)	IC50 (hDAT; [4]) [µM]	effect on dopamine transporters (DAT) (hDAT; [5])	effect of antagonist pre-treatment on MPH VI performance (male Sprague-Dawley rats [3]; MPH IP 2.0 mg/kg, prazosin IP 0.25 mg/kg, n=8)	effect of antagonist pre-treatment on SK609 VI performance (male Sprague-Dawley rats [3]; [6])	effect of antagonist pre-treatment on SK609 VI performance (male Sprague-Dawley rats [3]; [7])
CC(N)CCc1ccccc1Cl (stereo not shown) [SK609, 4-(2-chlorophenyl)-butan-2-amine]	did not differ significantly from saline	35.9	no effect	improved performance faster and maintained improvements better than saline	improved performance relative to saline	0.29	selective NET antagonism	8	without increasing omissions	enhanced sustained attention	increased the % of omissions	8.5	no effect	–	–	–
COc1cc2nc(N3CCN(C(=O)c4ccco4)CC3)nc(N)c2cc1OC [prazosin, 2-[4-(2-furoyl)piperazin-1-yl]-6,7-dimethoxyquinazolin-4-amine, reference compound]	–	–	–	–	–	–	–	–	–	–	–	–	–	blocked the effects	blocked the effects	completely abrogated
CCN1CCC[C@H]1CNC(=O)c1c(O)c(Cl)cc(Cl)c1OC [raclopride, 3,5-dichloro-N-{[(2S)-1-ethylpyrrolidin-2-yl]methyl}-2-hydroxy-6-methoxybenzamide, reference compound]	impairments in performance relative to controls	–	–	–	–	–	–	–	–	–	–	–	–	–	blocked the effects	moderately
